Source: patent US8592403B2, “Diazepine and diazocane compounds as MC4 agonists” (Pfizer Limited, priority 2008, dated 2013)

Tests used:
MC4 receptor = MC4 receptor (Homo sapiens, UniProt P32245); assay: MC4 EC50 functional potency (protocol E of US2005/0176772 / WO 2005/077935); format: cell-based
Method: The compounds of formula (I) of the present invention have utility as MCR4 agonists in the treatment of various disease states.
MC5 and MC4 EC50 activity was determined as described by assay protocols D and E, respectively, in US2005/0176772 (pages 28-30).

[1] = In vitro metabolism rate determination, human liver microsome (HLM) assay; format: in vitro ADME; details: human, liver microsomes, read-out: HLM: Clint, app
Description: In Vitro Metabolism Rate Determination (Human Liver Microsome (HLM); Rat Liver Microsome (RLM) Assay)
Many drugs are metabolised by the cytochrome P450 mono-oxygenase system. This enzyme is found in high concentrations in the liver and is bound to the endoplasmic reticulum of the hepatocyte. The enzyme system can be obtained in semi-purified state by the preparation of the hepatic microsomal fractions. Determining a compound's in vitro half-life in such a system provides a useful indicator of metabolic stability.
Methodology for In Vitro Rate Determination Using Hepatic & Supermix Microsomes
The method outlined below is for a total incubation volume of 1.5 ml.
1. The following mixture is prepared in a test tube:
2. Defrost microsomes at room temperature and add sufficient microsomes to give a final concentration of 0.5 nmol cytochrome P450/ml of incubation e.g. for a 1.5 ml incubation, the volume of microsomes to be added is:
3. Add sufficient MilliQ water to give a total incubation volume of 1.425 ml.
6. Add substrate to the incubation. The substrate should be at an initial concentration of 1 μM. The volume of substrate required in the remaining 1.162.5 ml incubation is calculated as follows: […]
8. Pre-incubate the tube containing the incubation mix, also positive control and no cofactor tubes in the thermostatically controlled shaking water bath set at 37° C. for approx 5 min.
9. Add NADP to initiate reaction (75 μl to each 1.162.5 ml incubation mix, 12.5 μl to positive control tube and 5 μl to no substrate tube) and take first time point immediately. The PNA positive control, no cofactor control and no substrate tubes are incubated for the total incubation time.
10. Remove 100 μl aliquots up to 9 different sampling points from 0 to 60 min (usually 0, 3, 5, 10, 15, 20, 30, 45 & 60 min) and terminate reaction. Longer incubation times can be used, but, after 120 min the microsomes deteriorate. The reaction may be terminated by addition of organic solvent, acid or base. At the end of the incubation process the no cofactor and no substrate controls in a similar manner i.e. terminate with the same reagent.
11. Analyse samples (including no cofactor and no substrate control) by a specific assay for the substrate to determine the disappearance kinetics.
Data obtained using the procedure described above can be quantified in terms of the substrates in vitro intrinsic clearance (Clint). Providing that the substrate concentration is below Km, the metabolism should be 1st order giving a log-linear plot of substrate disappearance with time.
The gradient of this line is the first order rate constant (k) for the substrate disappearance and is determined by regression analysis. This rate constant can be converted to the half-life according to the following equation.
Alternatively the rate constant can be converted to an intrinsic clearance (Clint) according to the following equation:— Clint(μl/min/mg)=(k/protein concentration in incubation (mg/ml))*1000

CYP3A4 = target: T1, CYP3A4 (Homo sapiens, UniProt P08684); assay: High density DDI 3 μM cocktail screen in human liver microsomes, midazolam probe; format: in vitro ADME; details: human, liver microsomes, probe midazolam, read-out: % inhibition 3A4 @ 3 μM
T1 construct: utilizes human liver microsomes together with isoform-specific clinical drug probes; from tissue; host or cells: human liver microsomes
T1 sequence (P08684 whole entry, canonical isoform): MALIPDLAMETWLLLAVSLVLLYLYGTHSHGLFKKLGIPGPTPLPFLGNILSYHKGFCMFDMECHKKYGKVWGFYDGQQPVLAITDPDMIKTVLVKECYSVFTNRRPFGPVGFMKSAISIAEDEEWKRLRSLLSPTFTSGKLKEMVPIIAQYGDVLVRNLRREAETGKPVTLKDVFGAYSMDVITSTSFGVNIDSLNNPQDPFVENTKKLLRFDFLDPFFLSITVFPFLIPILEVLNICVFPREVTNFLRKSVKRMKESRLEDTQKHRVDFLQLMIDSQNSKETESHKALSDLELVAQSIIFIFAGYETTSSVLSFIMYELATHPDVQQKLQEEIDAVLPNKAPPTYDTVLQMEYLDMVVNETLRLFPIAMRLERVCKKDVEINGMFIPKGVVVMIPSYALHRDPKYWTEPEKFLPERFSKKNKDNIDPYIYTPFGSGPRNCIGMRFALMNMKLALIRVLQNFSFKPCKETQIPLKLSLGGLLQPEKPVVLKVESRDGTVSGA
Method: High Density Drug-Drug Interactions (DDI) 3 μM Cocktail Screen
A drug interaction is a situation in which a substance affects the activity of another drug, i.e. the effects are increased or decreased, or together they produce a new effect that neither produces on its own. Drug interactions may be the result of various processes but a relatively common one is where one drug affects the pharmacokinetics of another by inhibiting the cytochrome P450 that metabolises it. Because of the importance of these phenomena, assessment of the DDI potential for new chemical entities (NCEs) is considered important early on in the drug discovery process.
The DDI cocktail screen in human liver microsomes (HLM) is run in a fully automated fashion and the aim of the screen is to provide a single-point assessment of the DDI potential of new chemical entity (NCE; tested at […]) against the 4 primary cytochrome P450 enzymes, 1A2, 2D6, 2C9 and 3A4.
The substrate cocktail approach for P450 DDI utilizes human liver microsomes together with isoform-specific clinical drug probes and permits the simultaneous measurement of the inhibition of P450 1A2, 2C9, 2D6 & 3A4 activities in a single incubation. This is run in high throughput with simultaneous detection of metabolites by LC-MS/MS. This method has been thoroughly tested and evaluated using standard compounds.
Appearance of the metabolite of each substrate is measured over time in the presence and absence of the NCE (test compound/inhibitor) at a concentration of 3 μM. The compounds are assessed for their inhibitory potential as a percentage value and interpreted using the following scheme.

MC4 receptor, sequence (P32245 whole entry): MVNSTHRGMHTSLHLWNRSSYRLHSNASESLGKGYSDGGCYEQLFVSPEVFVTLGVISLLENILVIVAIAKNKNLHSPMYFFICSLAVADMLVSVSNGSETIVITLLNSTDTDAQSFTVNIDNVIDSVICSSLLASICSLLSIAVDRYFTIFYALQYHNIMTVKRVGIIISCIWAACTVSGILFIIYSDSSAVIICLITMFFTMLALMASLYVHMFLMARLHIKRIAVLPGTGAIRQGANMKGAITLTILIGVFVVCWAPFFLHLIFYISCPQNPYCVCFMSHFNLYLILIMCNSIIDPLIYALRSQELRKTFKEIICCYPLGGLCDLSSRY

Work on CC(=O)N1CCN(C(=O)[C@@H]2CN(C(C)(C)C)C[C@H]2c2ccc(F)cc2F)CCC1c1ccc(Cl)cc1 (mixture of isomers) [Example 84] yielded an EC50 (MC4 receptor) of 0.206 µM and a microsomal CLint at 1 μM [1] of 27.9 µL/min/mg.

For CC(C)(C)N1C[C@@H](C(=O)N2CCC[C@@H](c3ccc(Cl)cc3)N(C(=O)C3CC(F)(F)C3)CC2)[C@H](c2ccc(Cl)cn2)C1 [Example 63], the inhibition at 3 µM (CYP3A4) was 55.6%, the EC50 (MC4 receptor) was 0.0853 µM and the microsomal CLint at 1 μM [1] was 9.43 µL/min/mg.

For CC(C)OC(=O)N1CCN(C(=O)[C@@H]2CN(C(C)(C)C)C[C@H]2c2ccc(F)cc2F)CCC[C@H]1c1ccc(Cl)cc1 [Example 53], the inhibition at 3 µM (CYP3A4) was 58.5%, the EC50 (MC4 receptor) was 0.0147 µM and the microsomal CLint at 1 μM [1] was 27.7 µL/min/mg.

Molecule COc1ccc([C@@H]2CN(c3ccc(C#N)nn3)C[C@H]2C(=O)N2CCC[C@@H](c3ccc(Cl)cc3)N(C(=O)CC(F)(F)F)CC2)c(F)c1 [Example 26] has an inhibition at 3 µM (CYP3A4) of 20.4%, an EC50 (MC4 receptor) of 0.00831 µM and a microsomal CLint at 1 μM [1] of 30.2 µL/min/mg.

Work on CC(C)(C)N1C[C@@H](C(=O)N2CCC[C@@H](c3ccc(Cl)cc3)N(C(=O)C3CCOCC3)CC2)[C@H](c2ccc(F)cc2F)C1 [Example 59, 1-{[(3S,4R)-1-tert-butyl-4-(2,4-difluorophenyl)pyrrolidin-3-yl]carbonyl}-5S-(4-chlorophenyl)-4-(tetrahydro-2H-pyran-4-ylcarbonyl)-1,4-diazocane] yielded an inhibition at 3 µM (CYP3A4) of 38.4%, an EC50 (MC4 receptor) of 0.0252 µM and a microsomal CLint at 1 μM [1] of 55.4 µL/min/mg.

COC(=O)N1CCN(C(=O)[C@@H]2CN(C(C)(C)C)C[C@H]2c2ccc(F)cc2F)CCC1c1ccc(Cl)cc1 (mixture of isomers) [Example 86] gave an inhibition at 3 µM (CYP3A4) of 20.3%, an EC50 (MC4 receptor) of 0.0972 µM and a microsomal CLint at 1 μM [1] of 29.6 µL/min/mg.

Work on CC(=O)N1CCN(C(=O)C2CN(c3ccc(C#N)nn3)C[C@H]2c2ccc(F)cc2F)CCC[C@H]1c1ccc(Cl)cc1 (stereo partly shown) [Example 21] yielded an inhibition at 3 µM (CYP3A4) of 35.1%.

COc1ccc([C@@H]2CN(c3ccc(=O)n(C)n3)C[C@H]2C(=O)N2CCC[C@@H](c3ccc(Cl)cc3)N(C(C)=O)CC2)c(F)c1 [Example 27] gave an inhibition at 3 µM (CYP3A4) of 25.7%, an EC50 (MC4 receptor) of 0.00502 µM and a microsomal CLint at 1 μM [1] of 20.4 µL/min/mg.

CC(C)(C)N1C[C@@H](C(=O)N2CCC(c3ccc(F)cc3F)N(S(C)(=O)=O)CC2)[C@H](c2ccc(F)cc2F)C1 (mixture of isomers) [Example 43] gave an EC50 (MC4 receptor) of 0.397 µM and a microsomal CLint at 1 μM [1] of 52 µL/min/mg.

Molecule Cn1nc(N2C[C@@H](C(=O)N3CCC[C@@H](c4ccc(Cl)cc4)N(C(=O)C4CC4)CC3)[C@H](c3ccc(F)cc3F)C2)ccc1=O [Example 34] has an inhibition at 3 µM (CYP3A4) of 69.2%, an EC50 (MC4 receptor) of 0.0039 µM and a microsomal CLint at 1 μM [1] of 30.9 µL/min/mg.

Molecule COc1ccc([C@@H]2CN(c3ccc(C#N)nn3)C[C@H]2C(=O)N2CCC[C@@H](c3ccc(Cl)cc3)N(C(=O)C(C)C)CC2)c(F)c1 [Example 24] has an inhibition at 3 µM (CYP3A4) of 43.4%, an EC50 (MC4 receptor) of 0.00227 µM and a microsomal CLint at 1 μM [1] of 37.3 µL/min/mg.

CCOC(=O)N1CCN(C(=O)[C@@H]2CN(C(C)(C)C)C[C@H]2c2ccc(F)cc2F)CCC[C@H]1c1ccc(Cl)cc1 [Example 52] gave an inhibition at 3 µM (CYP3A4) of 0% and an EC50 (MC4 receptor) of 0.0352 µM.

For CC(C)C(=O)N1CCN(C(=O)[C@@H]2CN(c3ccc(=O)n(C)n3)C[C@H]2c2ccc(F)cc2F)CCC[C@H]1c1ccc(Cl)cc1 [Example 33, 6-[(3S,4R)-3-{[5S-(4-chlorophenyl)-4-isobutyryl-1,4-diazocan-1-yl]carbonyl}-4-(2,4-difluorophenyl)pyrrolidin-1-yl]-2-methylpyridazin-3(2H)-one], the inhibition at 3 µM (CYP3A4) was 45.2%, the EC50 (MC4 receptor) was 0.0035 µM and the microsomal CLint at 1 μM [1] was 17 µL/min/mg.

CCC(=O)N1CCN(C(=O)[C@@H]2CN(C(C)(C)C)C[C@H]2c2ccc(Cl)cn2)CCC[C@H]1c1ccc(Cl)cc1 [Example 19] gave an inhibition at 3 µM (CYP3A4) of 41%, an EC50 (MC4 receptor) of 0.0648 µM and a microsomal CLint at 1 μM [1] of 62.6 µL/min/mg.

For CC(C)(C)N1C[C@@H](C(=O)N2CCC[C@@H](c3ccc(Cl)cc3)N(C(=O)N3CCOCC3)CC2)[C@H](c2ccc(F)cc2F)C1 [Example 46], the inhibition at 3 µM (CYP3A4) was 27.3%, the EC50 (MC4 receptor) was 0.0197 µM and the microsomal CLint at 1 μM [1] was 71.1 µL/min/mg.

Work on CCC(=O)N1CCN(C(=O)[C@@H]2CN(c3ccc(=O)n(C)n3)C[C@H]2c2ccc(F)cc2F)CCC[C@H]1c1ccc(Cl)cc1 [Example 35] yielded an inhibition at 3 µM (CYP3A4) of 68.3% and an EC50 (MC4 receptor) of 0.00529 µM.

Molecule COC(=O)N1CCN(C(=O)C2CN(c3ccc(C#N)nn3)CC2c2ccc(OC)cc2F)CCC[C@H]1c1ccc(Cl)cc1 (stereo partly shown) [Example 89] has an inhibition at 3 µM (CYP3A4) of 28.5% and a microsomal CLint at 1 μM [1] of 42.9 µL/min/mg.

For CC(C)(C)N1C[C@@H](C(=O)N2CCC(c3ccc(Cl)cc3)N(S(C)(=O)=O)CC2)[C@H](c2ccc(F)cc2F)C1 (mixture of isomers) [Example 85], the inhibition at 3 µM (CYP3A4) was 30.5%, the EC50 (MC4 receptor) was 0.404 µM and the microsomal CLint at 1 μM [1] was 48.4 µL/min/mg.

Molecule COc1ccc([C@@H]2CN(c3ccc(=O)n(C)n3)C[C@H]2C(=O)N2CCC[C@@H](c3ccc(Cl)cc3)N(C(=O)CC(F)(F)F)CC2)c(F)c1 [Example 30, 6-[(3S,4R)-3-{[5S-(4-chlorophenyl)-4-(3,3,3-trifluoropropanoyl)-1,4-diazocan-1-yl]carbonyl}-4-(2-fluoro-4-methoxyphenyl)pyrrolidin-1-yl]-2-methylpyridazin-3(2H)-one] has an inhibition at 3 µM (CYP3A4) of 36.8%, an EC50 (MC4 receptor) of 0.00601 µM and a microsomal CLint at 1 μM [1] of 18.2 µL/min/mg.

Work on COC(=O)N1CCN(C(=O)[C@@H]2CN(C(C)(C)C)C[C@H]2c2ccc(F)cc2F)CCC1c1ccc(F)cc1F (mixture of isomers) [Example 54] yielded an EC50 (MC4 receptor) of 0.0448 µM and a microsomal CLint at 1 μM [1] of 32.8 µL/min/mg.

Work on N#Cc1ccc(N2C[C@@H](C(=O)N3CCC[C@@H](c4ccc(Cl)cc4)N(C(=O)CC(F)(F)F)CC3)[C@H](c3ccc(F)cc3F)C2)nn1 [Example 58] yielded an inhibition at 3 µM (CYP3A4) of 46.5% and an EC50 (MC4 receptor) of 0.0221 µM.

CC(C)(C)N1C[C@@H](C(=O)N2CCC[C@@H](c3ccc(Cl)cc3)N(C(=O)C3N=CC=N3)CC2)[C@H](c2ccc(F)cc2F)C1 [Example 64] gave an EC50 (MC4 receptor) of 0.247 µM.

In the case of CC(=O)N1CCN(C(=O)[C@@H]2CN(c3ccc(C#N)nn3)C[C@H]2c2ccc(F)cc2F)CCC[C@H]1c1ccc(Cl)cc1 [Example 21], the EC50 (MC4 receptor) is reported as 0.00942 µM.

Molecule CCC(=O)N1CCN(C(=O)[C@@H]2CN(c3ccc(=O)n(C)n3)C[C@H]2c2ccc(Cl)cn2)CCC[C@H]1c1ccc(Cl)cc1 [Example 38] has an EC50 (MC4 receptor) of 0.0069 µM.

CC(C)C(=O)N1CCN(C(=O)[C@@H]2CN(c3ccc(C#N)nn3)C[C@H]2c2ccc(F)cc2F)CCC[C@H]1c1ccc(Cl)cc1 [Example 22] gave an inhibition at 3 µM (CYP3A4) of 59.2% and an EC50 (MC4 receptor) of 0.00525 µM.

CC(=O)N1CCN(C(=O)[C@@H]2CN(c3ccc(=O)n(C)n3)C[C@H]2c2ccc(Cl)cn2)CCC[C@H]1c1ccc(Cl)cc1 [Example 36] gave an EC50 (MC4 receptor) of 0.00767 µM.

COC(=O)N1CCN(C(=O)C2CN(c3ccc(C#N)nn3)C[C@H]2c2ccc(OC)cc2F)CCC[C@@H]1c1ccc(Cl)cc1 (stereo partly shown) [Example 88] gave an inhibition at 3 µM (CYP3A4) of 21.5% and a microsomal CLint at 1 μM [1] of 40.1 µL/min/mg.

CC(=O)N1CCN(C(=O)[C@@H]2CN(c3ccc(=O)n(C)n3)C[C@H]2c2ccc(F)cc2F)CCC[C@H]1c1ccc(Cl)cc1 [Example 32] gave an EC50 (MC4 receptor) of 0.00663 µM and a microsomal CLint at 1 μM [1] of 14.8 µL/min/mg.
